Structures can show the parent of a compound that is named as a salt.
Tests used:
Assay type in all cases: physicochemical
[1] = Water activity experiments in MeOH/water (relative stability of hydrate Pattern A and hydrate Pattern B); conditions: methanol/water
Description: The relative stability of the hydrate Pattern A and the hydrate Pattern B was investigated using water activity experiments in MeOH/water systems. About 5 mg of (S)-4-((2-methoxyethyl)(4-(5,6,7,8-tetrahydro-1,8-naphthyridin-2-yl)butyl)amino)-2-(quinazolin-4-ylamino)butanoic acid L-tartaric acid cocrystal Pattern A and 5 mg of (S)-4-((2-methoxyethyl)(4-(5,6,7,8-tetrahydro-1,8-naphthyridin-2-yl)butyl)amino)-2-(quinazolin-4-ylamino)butanoic acid L-tartaric acid cocrystal Pattern B were added to 0.1-0.5 mL saturated solutions of the methanol/water system. Obtained suspensions were stirred at 5° C., 25° C. and 50° C. for up to 21 days, respectively. Solid parts (wet cakes) were isolated by centrifugation filtration and investigated by XRPD.

[2] = Solubility at 37° C. in aqueous and biorelevant media; conditions: for Solubility (mg/ mL) 2 h / Solubility (mg/ mL) 24 h: target 250 mg/mL (in free form)
Description: To prepare the samples of (S)-4-((2-methoxyethyl)(4-(5,6,7,8-tetrahydro-1,8-naphthyridin-2-yl)butyl)amino)-2-(quinazolin-4-ylamino)butanoic acid L-tartaric acid cocrystal Pattern A, 80.6 mg was weighed into a 2 mL glass vial. Next, 0.18 mL of solubility medium was added. The salt amount used is equivalent to 45 mg of the amorphous free form. Obtained suspensions/solutions were stirred at 37° C. at 400 rpm and sampled at 2 h and at 24 h. The samples were centrifuged at 37° C. at 14,000 rpm for 5 min. Supernatants were analyzed by HPLC and pH meter for solubility and pH value, respectively. […]

[3] = Bulk stability of solid under temperature/humidity stress (HPLC, appearance, XRPD); conditions: for Bulk appearance (color change / deliquescence): Solid state, open container, 1 week
[4] = as above
Description: Bulk stability of (S)-4-((2-methoxyethyl)(4-(5,6,7,8-tetrahydro-1,8-naphthyridin-2-yl)butyl)amino)-2-(quinazolin-4-ylamino)butanoic acid L-tartaric acid cocrystal Pattern A was evaluated at 25° C./92.5% RH in an open container, at 40° C./75% RH in an open container, and at 60° C. in a closed container over 1 week and 4 weeks.
However, it became deliquescent after being stressed at 25° C./92.5% RH in an open container and at 40° C./75% RH in an open container after 1 week.

[5] = Equilibration of Pattern C suspension in IPA/water at 5° C.; conditions: IPA/water mixture, equilibration at 5° C., after 3 days
Description: Method 2: (S)-4-((2-methoxyethyl)(4-(5,6,7,8-tetrahydro-1,8-naphthyridin-2-yl)butyl)amino)-2-(quinazolin-4-ylamino)butanoic acid L-tartaric acid cocrystal Pattern C was prepared using the following procedure. 200 mg of (S)-4-((2-methoxyethyl)(4-(5,6,7,8-tetrahydro-1,8-naphthyridin-2-yl)butyl)amino)-2-(quinazolin-4-ylamino)butanoic acid L-tartaric acid cocrystal Pattern A (see Example 1) was dissolved in 1.8 mL of IPA/water (7:3, v:v) at 50° C. The obtained thin suspension was filtered through a 0.45 μm syringe membrane filter to obtain a clear solution. The clear solution was cooled to 5° C. at 0.1° C./min after stirring at 50° C. for about 30 min. After stirred at 5° C. for about 2 days, a suspension was obtained. Solids were collected by centrifugation and investigated by XRPD. A low crystallinity Pattern C was obtained.
The suspension was kept stirring at 5° C. for another 3 days. Solids were collected by centrifugation and investigated by XRPD. A low crystalline Pattern B was obtained.

[6] = pH 4.5 acetate buffer (50 mM), 37° C.
[7] = pH 6.8 phosphate buffer (50 mM), 37° C.
[8] = Solid state, 60° C., closed container, 1 week

COCCN(CCCCc1ccc2c(n1)NCCC2)CC[C@H](Nc1ncnc2ccccc12)C(=O)O [Pattern B, (S)-4-((2-methoxyethyl)(4-(5,6,7,8-tetrahydro-1,8-naphthyridin-2-yl)butyl)amino)-2-(quinazolin-4-ylamino)butanoic acid]
water activity (a.w.) at which the pattern was obtained ([1]; 5° C.): 1.0 | water activity (a.w.) at which the pattern was obtained ([1]; 25° C.): 1.0

COCCN(CCCCc1ccc2c(n1)NCCC2)CC[C@H](Nc1ncnc2ccccc12)C(=O)O [Phosphate salt, hydrate, (S)-4-((2-methoxyethyl)(4-(5,6,7,8-tetrahydro-1,8-naphthyridin-2-yl)butyl)amino)-2-(quinazolin-4-ylamino)butanoic acid, reference compound]
pH of supernatant at 24 h ([2]; FaSSGF, pH 1.6, 37° C.): (5.8) | Solubility (mg/ mL) 2 h ([2]; FaSSGF, pH 1.6, 37° C.): >247 mg/mL | Solubility (mg/ mL) 24 h ([2]; FaSSGF, pH 1.6, 37° C.): >247 mg/mL | pH of supernatant at 24 h ([2]; FaSSIF-v1, pH 6.5, 37° C.): (5.9) | Solubility (mg/ mL) 2 h ([2]; FaSSIF-v1, pH 6.5, 37° C.): >213 mg/mL | Solubility (mg/ mL) 24 h ([2]; FaSSIF-v1, pH 6.5, 37° C.): >214 mg/mL | pH of supernatant at 24 h ([2]; FeSSIF-v1, pH 5.0, 37° C.): (5.8) | Solubility (mg/ mL) 2 h ([2]; FeSSIF-v1, pH 5.0, 37° C.): >214 mg/mL | Solubility (mg/ mL) 24 h ([2]; FeSSIF-v1, pH 5.0, 37° C.): >218 mg/mL | pH of supernatant at 24 h ([2]; Water, 37° C.): (5.8) | Solubility (mg/ mL) 2 h ([2]; Water, 37° C.): >247 mg/mL | Solubility (mg/ mL) 24 h ([2]; Water, 37° C.): >247 mg/mL | pH of supernatant at 24 h ([2]; pH 1.2 HCl buffer, 37° C.): (1.6) | Solubility (mg/ mL) 2 h ([2]; pH 1.2 HCl buffer, 37° C.): >208 mg/mL | Solubility (mg/ mL) 24 h ([2]; pH 1.2 HCl buffer, 37° C.): >208 mg/mL | pH of supernatant at 24 h [2, 6]: (4.8) | Solubility (mg/ mL) 2 h [2, 6]: >228 mg/mL | Solubility (mg/ mL) 24 h [2, 6]: >228 mg/mL | pH of supernatant at 24 h [2, 7]: (6.7) | Solubility (mg/ mL) 2 h [2, 7]: >229 mg/mL | Solubility (mg/ mL) 24 h [2, 7]: >229 mg/mL | purity decrease ([3]; 40° C./75% RH in an open container, 4 weeks): 2.5% | Bulk appearance (color change / deliquescence) ([3]; 25° C./92.5% RH): deliquescent | Bulk appearance (color change / deliquescence) ([3]; 40° C./75% RH): deliquescent | purity decrease ([4]; 25° C./92.5% RH in an open container, 4 weeks): 0.6% | physical stability ([4]; 60° C. in a closed container over 4 weeks): physically stable | purity decrease ([4]; 60° C. in a closed container, 4 weeks): 1.1% | Bulk (HPLC) purity, 316 nm ([4]; Solid state, 25° C./92.5% RH, open container, 1 week): 99.7% | Bulk (HPLC) purity, 316 nm ([4]; Solid state, 25° C./92.5% RH, open container, 4 weeks): 99.2% | Bulk (HPLC) purity, 316 nm ([4]; Solid state, 40° C./75% RH, open container, 1 week): 98.7% | Bulk (HPLC) purity, 316 nm ([4]; Solid state, 40° C./75% RH, open container, 4 weeks): 97.3% | Bulk (HPLC) purity, 316 nm [4, 8]: 99.3% | Bulk (XRPD) [4, 8]: No form change | Bulk (HPLC) purity, 316 nm ([4]; Solid state, 60° C., closed container, 4 weeks): 98.7%

COCCN(CCCCc1ccc2c(n1)NCCC2)CC[C@H](Nc1ncnc2ccccc12)C(=O)O [Pattern C, (S)-4-((2-methoxyethyl)(4-(5,6,7,8-tetrahydro-1,8-naphthyridin-2-yl)butyl)amino)-2-(quinazolin-4-ylamino)butanoic acid]
form conversion [5]: converts to Pattern B
